Test results as given in PubChem BioAssay (NCI).
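Dose response: 5 concentrations. Exposure: 48 h. Format: 96-well plates. Endpoint: linear interpolation; highest concentration if not reached. TGI is the concentration that stops growth completely.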

Key:
Assay in all cases: NCI-60 cell line screen, 48 h
[1] = tested on: SNB-19 CNS
[2] = tested on: CCRF-CEM leukemia
[3] = tested on: HCC-2998 colon
[4] = tested on: NCI-H460 lung
[5] = tested on: SNB-75 CNS
[6] = tested on: COLO 205 colon
[7] = tested on: KM12 colon
[8] = tested on: DMS 273 small cell lung
[9] = tested on: HL-60(TB) leukemia
[10] = tested on: LOX IMVI melanoma
[11] = tested on: HOP-62 NSCLC
[12] = tested on: A549 NSCLC
[13] = tested on: TK-10 renal
[14] = tested on: MALME-3M melanoma
[15] = tested on: OVCAR-5 ovarian
[16] = tested on: SK-MEL-5 melanoma
[17] = tested on: OVCAR-8 ovarian
[18] = tested on: UO-31 renal
[19] = tested on: UACC-257 melanoma
[20] = tested on: NCI-H522 lung
[21] = tested on: CAKI-1 renal
[22] = tested on: SNB-78 CNS
[23] = tested on: NCI-H23 lung
[24] = tested on: M19-MEL melanoma
[25] = tested on: HOP-92 NSCLC
[26] = tested on: IGROV1 ovarian
[27] = tested on: HCT-116 colon
[28] = tested on: M14 melanoma
[29] = tested on: RPMI-8226 leukemia
[30] = tested on: NCI-H226 lung
[31] = tested on: SK-OV-3 ovarian
[32] = tested on: LXFL 529 NSCLC
[33] = tested on: ACHN renal
[34] = tested on: 786-0 renal
[35] = tested on: OVCAR-4 ovarian
[36] = tested on: SN12C renal
[37] = tested on: SR leukemia
[38] = tested on: SF-268 CNS
[39] = tested on: RXF-631 renal
[40] = tested on: DLD-1 colon
[41] = tested on: HT29 colon
[42] = tested on: K-562 leukemia
[43] = tested on: U251 CNS
[44] = tested on: SK-MEL-28 melanoma
[45] = tested on: SW-620 colon
[46] = tested on: OVCAR-3 ovarian
[47] = tested on: HCT-15 colon
[48] = tested on: MOLT-4 leukemia
[49] = tested on: SF-295 CNS
[50] = tested on: RXF 393 renal
[51] = tested on: KM20L2 colon
[52] = tested on: SF-539 CNS
[53] = tested on: DMS 114 small cell lung
[54] = tested on: UACC-62 melanoma
[55] = tested on: SK-MEL-2 melanoma
[56] = tested on: A498 renal
[57] = tested on: HOP-18 NSCLC
[58] = tested on: EKVX NSCLC

SMILES: CC1(C)CCCC2(C)[C@@H]1CC[C@@]13CC(=O)[C@@](C)(CC[C@@H]21)C3 (stereo partly specified)
- TGI [1]: > 100 µM
- TGI [2]: > 100 µM
- TGI [3]: > 100 µM
- TGI [4]: > 100 µM
- TGI [5]: > 100 µM
- TGI [6]: > 100 µM
- TGI [7]: > 100 µM
- TGI [8]: > 100 µM
- TGI [9]: > 100 µM
- TGI [10]: > 100 µM
- TGI [11]: > 100 µM
- TGI [12]: > 100 µM
- TGI [13]: > 100 µM
- TGI [14]: > 100 µM
- TGI [15]: > 100 µM
- TGI [16]: > 100 µM
- TGI [17]: > 100 µM
- TGI [18]: > 100 µM
- TGI [19]: 97.3 µM
- TGI [20]: 82.5 µM
- TGI [21]: > 100 µM
- TGI [22]: > 100 µM
- TGI [23]: > 100 µM
- TGI [24]: 89.6 µM
- TGI [25]: > 100 µM
- TGI [26]: > 100 µM
- TGI [27]: > 100 µM
- TGI [28]: > 100 µM
- TGI [29]: > 100 µM
- TGI [30]: > 100 µM
- TGI [31]: > 100 µM
- TGI [32]: > 100 µM
- TGI [33]: > 100 µM
- TGI [34]: > 100 µM
- TGI [35]: > 100 µM
- TGI [36]: > 100 µM
- TGI [37]: > 100 µM
- TGI [38]: > 100 µM
- TGI [39]: > 100 µM
- TGI [40]: > 100 µM
- TGI [41]: 76.3 µM
- TGI [42]: > 100 µM
- TGI [43]: > 100 µM
- TGI [44]: > 100 µM
- TGI [45]: > 100 µM
- TGI [46]: > 100 µM
- TGI [47]: > 100 µM
- TGI [48]: > 100 µM
- TGI [49]: > 100 µM
- TGI [50]: 62.8 µM
- TGI [51]: > 100 µM
- TGI [52]: > 100 µM
- TGI [53]: > 100 µM
- TGI [54]: > 100 µM

SMILES: COc1cc([C@@H]2c3cc4c(cc3[C@@H](NC(=O)c3cccc(C#N)c3)C3COC(=O)[C@@H]32)OCO4)cc(OC)c1O (stereo partly specified)
- TGI [1]: 8.62 µM
- TGI [2]: > 100 µM
- TGI [3]: 6.34 µM
- TGI [4]: 2.53 µM
- TGI [5]: 4.85 µM
- TGI [6]: > 100 µM
- TGI [7]: 5.21 µM
- TGI [8]: 13.8 µM
- TGI [9]: 12.3 µM
- TGI [10]: 10.5 µM
- TGI [12]: 2.51 µM
- TGI [13]: 7.86 µM
- TGI [14]: 5.18 µM
- TGI [15]: 25.5 µM
- TGI [16]: 13.6 µM
- TGI [17]: 14.6 µM
- TGI [18]: 19.2 µM
- TGI [55]: 8.83 µM
- TGI [19]: > 100 µM
- TGI [20]: 3.16 µM
- TGI [21]: 16.3 µM
- TGI [22]: > 100 µM
- TGI [23]: 0.811 µM
- TGI [56]: 4.98 µM
- TGI [25]: 9.89 µM
- TGI [26]: 6.54 µM
- TGI [27]: 12.7 µM
- TGI [28]: > 100 µM
- TGI [29]: 29.4 µM
- TGI [30]: 0.67 µM
- TGI [32]: > 100 µM
- TGI [33]: 1.98 µM
- TGI [34]: > 100 µM
- TGI [57]: > 100 µM
- TGI [35]: > 100 µM
- TGI [36]: 1.81 µM
- TGI [38]: > 100 µM
- TGI [39]: 14.6 µM
- TGI [40]: 16.8 µM
- TGI [58]: 7.49 µM
- TGI [41]: 11.5 µM
- TGI [42]: > 100 µM
- TGI [43]: 1.81 µM
- TGI [44]: > 100 µM
- TGI [45]: 17.8 µM
- TGI [46]: 8.74 µM
- TGI [47]: 24.5 µM
- TGI [48]: 33 µM
- TGI [50]: 45.5 µM
- TGI [51]: 7.53 µM
- TGI [52]: 1.56 µM
- TGI [54]: 2.95 µM
